Tests used:
[1] = system: ear swelling induced by arachidonic acid; assay: topical anti-inflammatory activity test (arachidonic acid-induced ear swelling); format: in vivo, male ICR mice; conditions: Mus musculus, 1 hour before 1 mg arachidonic acid, read-out: Ratio of inhibition of ear swelling induced by arachidonic acid; for inhibition in vivo at 10 µg/ear: 10 μg/ear; for inhibition in vivo at 30 µg/ear: 30 μg/ear; for inhibition in vivo at 100 µg/ear: 100 μg/ear
Description: The 3,4-dihydroxychalcone derivatives shown in Table 9, as test compounds, were subjected to the following topical anti-inflammatory activity test.
Acetone solutions were prepared from the test compounds. Then, the acetone solution were applied to the right ears of male ICR mice such that the dose of each test compound was 10 μg/ear, 30 μg/ear of 100 μg/ear. One hour after the application, 1 mg of arachidonic acid was applied to each right ear to cause ear swelling.
One hour after the application of the arachidonic acid, the mice were sacrificed by vertebral cervical dislocation, and the right and left ears were taken and separately weighed. The weight of the right ear to which the arachidonic acid had been applied was divided by the weight of the non-treated left ear to obtain a swelling ratio.
The effect of each test compound was shown in the following manner. The relative values of the swelling ratios of individual mice were calculated on an assumption that the average value of the swelling ratios of the solvent control group was taken as 100, and amounts of their decreases were expressed by percentages (inhibition ratios).

cyclooxygenase = molecular target: T1, cyclooxygenase (Ovis aries, UniProt P05979); assay: cyclooxygenase inhibiting activity test; format: biochemical; conditions: sheep seminal vesicle, pH 7.4, prostaglandin E2 formation
T1 construct: containing sheep seminal vesicle; from tissue; host or cells: sheep seminal vesicle
T1 sequence (P05979 25-600): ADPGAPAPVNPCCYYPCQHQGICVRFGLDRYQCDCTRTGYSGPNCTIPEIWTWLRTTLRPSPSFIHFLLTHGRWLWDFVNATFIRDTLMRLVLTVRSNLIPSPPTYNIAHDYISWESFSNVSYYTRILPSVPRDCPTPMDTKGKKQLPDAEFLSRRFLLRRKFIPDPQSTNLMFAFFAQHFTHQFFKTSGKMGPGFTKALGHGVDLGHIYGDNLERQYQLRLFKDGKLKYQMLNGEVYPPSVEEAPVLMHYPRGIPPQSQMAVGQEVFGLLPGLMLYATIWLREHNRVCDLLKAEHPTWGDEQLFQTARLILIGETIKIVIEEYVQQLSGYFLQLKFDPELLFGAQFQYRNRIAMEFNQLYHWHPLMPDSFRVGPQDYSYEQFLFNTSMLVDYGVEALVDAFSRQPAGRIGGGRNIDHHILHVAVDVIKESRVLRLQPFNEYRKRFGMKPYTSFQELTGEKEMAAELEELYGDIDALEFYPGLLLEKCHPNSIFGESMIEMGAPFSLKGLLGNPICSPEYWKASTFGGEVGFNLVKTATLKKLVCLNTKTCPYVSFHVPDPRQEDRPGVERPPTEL
Description: A 50 mM phosphoric acid buffer solution (pH 7.4) containing sheep seminal vesicle, 2 mM of glutathione, 0.6 mM of epinephrine and 80 μM of EDTA-2Na preheated at 37° C. for 2 minutes, and then ^14 C-arachidonic acid was added to the reaction mixture. The mixture was heated for 10 minutes to form prostaglandin E2, and the radiation activity of the formed prostaglandin E2 was taken as cyclooxygenase activity. The 3,4-dihydroxychalcone derivatives shown in Table 10 were selected as test compounds. The cyclooxygenase inhibiting activity of each test compound was evaluated as follows. Each test compound was independently added to the above phosphoric acid buffer solution, and the radiation activity of the formed prostaglandin E2 was measured in the same manner as above. The inhibition ratio of each test compound was determined in comparison with that of the control group, and the value of IC50 was calculated by a conventional method.

[2] = JP,A 63-297847; cited from earlier work
[3] = system: enzymes which are to cause inflammation; conditions: in vitro; PROSTAGLADINSS (1985, 30 (3) 357); cited from earlier work
[4] = Food Chemistry (1983, 12) 205-212; cited from earlier work
5-lipoxygenase = molecular target: T2, 5-lipoxygenase (Rattus norvegicus, UniProt P12527); assay: 5-lipoxygenase inhibiting activity test (RBL-1 cell homogenate); format: biochemical; conditions: pH 7.4, 37° C., 5-HETE formation
T2 construct: endogenous in cells; host or cells: RBL-1 cell homogenate
T2 sequence (P12527 1-673): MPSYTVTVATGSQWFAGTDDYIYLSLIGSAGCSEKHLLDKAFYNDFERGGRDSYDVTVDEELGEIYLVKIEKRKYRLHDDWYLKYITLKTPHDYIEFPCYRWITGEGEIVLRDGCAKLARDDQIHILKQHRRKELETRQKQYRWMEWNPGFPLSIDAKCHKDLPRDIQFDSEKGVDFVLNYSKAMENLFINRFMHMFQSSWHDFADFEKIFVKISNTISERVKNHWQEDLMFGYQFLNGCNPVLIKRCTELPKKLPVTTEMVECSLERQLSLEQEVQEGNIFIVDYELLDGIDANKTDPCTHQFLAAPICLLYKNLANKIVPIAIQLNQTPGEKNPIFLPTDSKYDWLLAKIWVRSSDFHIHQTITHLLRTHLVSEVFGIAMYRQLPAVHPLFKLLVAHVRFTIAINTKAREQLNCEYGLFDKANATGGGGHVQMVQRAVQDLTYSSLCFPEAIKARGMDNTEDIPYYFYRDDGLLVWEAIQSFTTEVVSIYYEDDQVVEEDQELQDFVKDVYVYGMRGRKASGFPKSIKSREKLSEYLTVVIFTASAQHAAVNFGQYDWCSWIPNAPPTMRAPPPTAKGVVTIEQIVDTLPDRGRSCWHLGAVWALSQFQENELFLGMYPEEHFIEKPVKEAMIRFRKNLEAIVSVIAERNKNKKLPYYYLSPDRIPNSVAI
Description: RBL-1 cell homogenate was suspended in a 50 mM phosphoric acid buffer solution (pH 7.4) containing 2 mM of CaCl2, 0.25 mM of sucrose, 1 mM of EDTA-2Na and glutathione, and the mixture was heated to 37° C. Arachidonic acid was added to the mixture to form 5-HETE (5-hydroxyeicosatetraenonic acid), and the 5-HETE was measured for an amount by a high-performance liquid chromatography.
The 3,4-dihydroxychalcone derivatives shown in Table 11 were selected as test compounds. The 5-lipoxygenase inhibiting activity of each test compound was evaluated as follows. Each test compound was independently added to the above phosphoric acid buffer solution, and the 5-HETE amount was measured in the same manner as above. The inhibition ratio of each test compound was determined in comparison with that of the control group, and the value of IC50 was calculated by a conventional method.

[5] = JP,A 61-76433; cited from earlier work

| Compound | inhibition in vivo at 30 µg/ear [1] [%] | IC50 (cyclooxygenase) [µM] | further results |
| --- | --- | --- | --- |
| Cc1ccc(O)c(C(=O)C=Cc2ccc(O)c(O)c2)c1 [Example 5] | 52 | 121 | inhibition in vivo at 10 µg/ear [1]: 31% |
| CC(C)c1ccc(O)c(C(=O)C=Cc2ccc(O)c(O)c2)c1 [Example 7] | 9 | 37.3 | – |
| COc1cc(C(=O)C=Cc2ccc(O)c(O)c2)ccc1O [Example 28] | 47 | – | – |
| COc1cccc(OC)c1C(=O)C=Cc1ccc(O)c(O)c1 [Example 12] | 8 | – | – |
| COc1ccc(OC(C)C)cc1C(=O)C=Cc1ccc(O)c(O)c1 [Example 14] | 33 | 59.9 | – |
| COc1ccc(C(=O)C=Cc2ccc(O)c(O)c2)c(O)c1 [Example 4] | 35 | 64.8 | – |
| O=C(/C=C/c1ccc(O)c(O)c1)c1cccc(O)c1O [2',3',3,4-tetrahydroxychalcone] | – | – | anti-inflammatory activity [2]: extensive anti-inflammatory activity |
| COc1ccccc1C(=O)C=Cc1ccc(O)c(O)c1 [Example 19] | 42 | 35.3 | – |
| CC(C)Oc1ccc(C(=O)C=Cc2ccc(O)c(O)c2)cc1 [Example 22] | 5 | – | – |
| COc1ccc(C(=O)C=Cc2ccc(O)c(O)c2)cc1 [Example 21] | – | 488 | inhibition in vivo at 10 µg/ear [1]: 45% |
| CCOc1ccc(O)c(C(=O)C=Cc2ccc(O)c(O)c2)c1 [Example 10] | 43 | 129 | – |
| CCOc1ccc(OC)cc1C(=O)C=Cc1ccc(O)c(O)c1 [Example 15] | 7.4 | 3.2 | – |
| Cc1cccc(C(=O)C=Cc2ccc(O)c(O)c2)c1 [Example 17] | 28 | 71 | inhibition in vivo at 100 µg/ear [1]: 38% |
| O=C(/C=C/c1ccc(O)c(O)c1)c1ccc(O)cc1 [4',3,4-trihydroxychalcone] | – | – | inhibiting activity against enzymes which are to cause inflammation [3]: inhibiting activity against enzymes which are to cause inflammation |
| O=C(C=Cc1ccc(O)c(O)c1)c1cc(O)ccc1O [Example 3] | 39 | 169 | – |
| COc1cc(C(=O)C=Cc2ccc(O)c(O)c2)cc(OC)c1OC [Example 30] | 65 | – | – |
| CN(C)c1ccc(C(=O)C=Cc2ccc(O)c(O)c2)cc1 [Example 24] | 21 | 808 | – |
| COc1ccc(C(=O)C=Cc2ccc(O)c(O)c2)cc1OC [Example 29] | 38 | 829 | – |

| Compound | inhibition in vivo at 30 µg/ear [1] [%] | IC50 (cyclooxygenase) [µM] | further results |
| --- | --- | --- | --- |
| Cc1cc(C)c(C(=O)C=Cc2ccc(O)c(O)c2)c(C)c1 [Example 27] | 47 | 275 | – |
| Cc1ccc(C(=O)C=Cc2ccc(O)c(O)c2)c(C)c1 [Example 25] | 43 | 40.5 | – |
| O=C(/C=C/c1ccc(O)c(O)c1)c1ccccc1 [3,4-dihydroxychalcone] | – | – | inhibiting activity against enzymes which are to cause inflammation [3]: inhibiting activity against enzymes which are to cause inflammation; activity to inhibit the oxidation of edible oils [4]: activity to inhibit the oxidation of edible oils |
| COc1ccc(OC)c(C(=O)/C=C/c2ccc(O)c(O)c2)c1 [Example 1, 2',5'-dimethoxy-3,4-dihydroxychalcone] | 77 | 17.1 | IC50 (5-lipoxygenase): 0.0078 µM |
| O=C(/C=C/c1ccc(O)c(O)c1)c1ccccc1O [2',3,4-trihydroxychalcone] | – | – | inhibiting activity against enzymes which are to cause inflammation [3]: inhibiting activity against enzymes which are to cause inflammation |
| COc1ccc(O)c(C(=O)C=Cc2ccc(O)c(O)c2)c1 [Example 6] | 38 | 41.3 | inhibition in vivo at 10 µg/ear [1]: 7.6%; inhibition in vivo at 100 µg/ear [1]: 43% |
| COc1ccc(C(=O)C=Cc2ccc(O)c(O)c2)c(OC)c1 [Example 2] | 56 | 156 | – |
| Cc1ccc(C(=O)C=Cc2ccc(O)c(O)c2)cc1 [Example 18] | 27 | 210 | – |
| CCCCOc1ccc(O)c(C(=O)C=Cc2ccc(O)c(O)c2)c1 [Example 9] | 31 | – | – |
| CCOc1ccc(OC)c(C(=O)C=Cc2ccc(O)c(O)c2)c1 [Example 13] | 13 | 26 | – |
| CN(C)c1cccc(C(=O)C=Cc2ccc(O)c(O)c2)c1 [Example 23] | 19 | 40.6 | – |
| Cc1ccc(C)c(C(=O)C=Cc2ccc(O)c(O)c2)c1 [Example 26] | 58 | 43.7 | – |
| COc1cccc(C(=O)C=Cc2ccc(O)c(O)c2)c1 [Example 20] | 58 | 15.1 | – |
| COc1ccc(C)cc1C(=O)C=Cc1ccc(O)c(O)c1 [Example 11] | 32 | 29.7 | – |
| CC(C)Oc1ccc(O)c(C(=O)C=Cc2ccc(O)c(O)c2)c1 [Example 8] | 67 | – | – |
| O=C(/C=C/c1ccc(O)c(O)c1)c1ccc(O)cc1O [2',4',3,4-tetrahydroxychalcone] | – | – | inhibiting activity against enzymes which are to cause inflammation [3]: inhibiting activity against enzymes which are to cause inflammation |
| COc1ccc(C(=O)C=Cc2ccc(O)c(O)c2)c(OC)c1OC [3-(3,4-dihydroxyphenyl)-1-(2,3,4-trimethoxyphenyl)-2-propen-1-one] | – | – | antiallergic activity [5]: antiallergic activity |
| CCOc1ccc(OCC)c(C(=O)C=Cc2ccc(O)c(O)c2)c1 [Example 16] | – | 24.4 | inhibition in vivo at 10 µg/ear [1]: 7% |
